Laboratory results reported in US20110059948A1, “QUINOLINE, NAPHTHALENE AND CONFORMATIONALLY CONSTRAINED QUINOLINE OR NAPHTHALENE DERIVATIVES AS ANTI-MYCOBACTERIAL AGENTS” (priority 2008, published 2011).

Columns and labels:
[1] = test system: clinical isolate MDR (BTB 08-072); experiment: microbe, parasite or virus in culture; assay type: cell-based, Mycobacterium tuberculosis; conditions: for MIC: Mycobacterium tuberculosis, read-out: MIC against MDR-TB (BTB 08-072), strain resistant to all front line drugs; for MIC against MDR-TB (BTB 08-072), strain resistant to all front line drugs: agar dilution, Middlebrook 7H10
[2] = test system: clinical isolates resistant to one or more standard antitubercular drugs (MDR-TB strains); experiment: microbe, parasite or virus in culture; assay type: cell-based, Mycobacterium tuberculosis; conditions: for MIC M. tuberculosis Resistant (n = 10): clinical isolates, n = 10 strains tested

Structure (SMILES) | MIC [1] [µg/mL] | MIC ([2]; Mycobacterium tuberculosis, read-out: MIC M. tuberculosis Resistant (n = 10)) [µg/mL] | MIC M. tuberculosis Resistant (n = 10) [2] [µg/mL] | MIC against MDR-TB (BTB 08-072), strain resistant to all front line drugs [1] [µg/mL]
CO[C@H]1/C=C/O[C@@]2(C)Oc3c(C)c(O)c4c(O)c(c(/C=N/N5CCN(C)CC5)c(O)c4c3C2=O)NC(=O)/C(C)=C\C=C\[C@H](C)[C@H](O)[C@@H](C)[C@@H](O)[C@@H](C)[C@H](OC(C)=O)[C@@H]1C [Refampin, Rifampicin, reference compound] | > 16 |  |  | 
NNC(=O)c1ccncc1 [Isoniazid, reference compound] | > 16 | > 16 |  | 
CC(O)c1cc(F)ccc1Oc1nc2ccc(NC(=O)Nc3cccc([N+](=O)[O-])c3)cc2cc1Cc1ccccc1 (centres unmarked) [Example 31] |  |  | <6.25 | >6.25
CC(c1cc(F)ccc1Oc1nc2ccc(-n3cc(-c4ccccc4)nn3)cc2cc1Cc1ccccc1)n1ccnc1 (centres unmarked) [Example 23] |  |  | <6.25 | >6.25
COc1cccc(NC(=O)Nc2ccc3nc(Oc4ccc(F)cc4C(C)O)c(Cc4ccccc4)cc3c2)c1 (centres unmarked) [Example 26] |  |  | <4.0 | >4.0
ON=C1c2ccccc2-c2c1c(N1CCN(c3ccccn3)CC1)nc1ccc(Br)cc21 [Example 134] |  |  | <6.25 | >6.25
